Data from US12102648B2, “Orally-bioavailable nucleoside analogs” (priority 2021, dated 2024).
Like-named read-outs stand apart in the source and are kept apart here.

Assay: in vitro
Type: in vitro ADME
Details: human
Method in brief: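 Caco-2 monolayers cultured 19 days on inserts (TEER >600 […]); bidirectional A-to-B and B-to-A transport at 37° C over 90 min, samples quantified by LC/MS/MS. Papp, efflux ratio and recovery calculated; ER >2 flags potential efflux substrates.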

[1] = Caco-2 monolayer, apical to basolateral, 90-minute incubation, read-out: Papp, A-B
[2] = Caco-2 monolayer, basolateral to apical, 90-minute incubation, read-out: Papp, B-A
[3] = Caco-2 monolayer, ER>2 indicates potential efflux transporter substrate, read-out: ER (efflux ratio)

| Compound | Papp A→B at 90 min (Caco-2) [×10⁻⁶ cm/s] | Papp B→A at 90 min (Caco-2) [×10⁻⁶ cm/s] | efflux ratio at 90 min (Caco-2) | Papp A→B at 90 min [1] [×10⁻⁶ cm/s] | Papp B→A at 90 min [2] [×10⁻⁶ cm/s] | efflux ratio at 90 min [3] |
| --- | --- | --- | --- | --- | --- | --- |
| CCCCC(=O)Nc1ncnn2c([C@]3(C#N)O[C@H](COC(=O)[C@@H](N)C(C)C)[C@@H](O)[C@H]3O)ccc12 [Compound 341, ((2R,3S,4R,5R)-5-cyano-3,4-dihydroxy-5-(4-pentanamidopyrrolo[2,1-f][1,2,4]triazin-7-yl)tetrahydrofuran-2-yl)methyl L-valinate] | 0.13 | 2.3 | 18 | – | – | – |
| CCC(=O)Nc1nc(NC)c2ncn([C@@H]3O[C@H](COC(C)=O)[C@@H](O)[C@@]3(C)F)c2n1 [Compound 330, ((2R,3R,4R,5R)-4-fluoro-3-hydroxy-4-methyl-5-(6-(methylamino)-2-propionamido-9H-purin-9-yl)tetrahydrofuran-2-yl)methyl acetate] | 0.54 | 7 | 13 | – | – | – |
| CCCC(=O)Nc1ncnn2c([C@]3(C#N)O[C@H](COC(=O)CC4(N)CCCCC4)[C@@H](O)[C@H]3O)ccc12 [Compound 354, ((2R,3S,4R,5R)-5-(4-butyramidopyrrolo[2,1-f][1,2,4]triazin-7-yl)-5-cyano-3,4-dihydroxytetrahydrofuran-2-yl)methyl 2-(1-aminocyclohexyl)acetate] | 10 | 3 | 0.29 | – | – | – |
| N#C[C@@]1(c2ccc3c(NC(=O)c4ccccc4)ncnn23)O[C@H](COC(=O)CC2CCCCC2)[C@@H](O)[C@H]1O [Compound 285, ((2R,3S,4R,5R)-5-(4-benzamidopyrrolo[2,1-f][1,2,4]triazin-7-yl)-5-cyano-3,4-dihydroxytetrahydrofuran-2-yl)methyl 2-cyclohexylacetate] | 1.1 | 0.9 | 0.83 | – | – | – |
| N#C[C@@]1(c2ccc3c(NC(=O)c4ccccc4)ncnn23)O[C@H](CO)[C@@H](O)[C@H]1O [Compound 85, N-(7-((2R,3R,4S,5R)-2-cyano-3,4-dihydroxy-5-(hydroxymethyl)tetrahydrofuran-2-yl)pyrrolo[2,1-f][1,2,4]triazin-4-yl)benzamide] | 0.37 | 11 | 31 | – | – | – |
| CC(C)C(=O)Nc1ncnn2c([C@]3(C#N)O[C@H](COC(=O)CC4CCCCC4)[C@@H](OC(=O)[C@@H](N)C(C)C)[C@H]3O)ccc12 [Compound 349, (2R,3S,4R,5R)-5-cyano-2-((2-cyclohexylacetoxy)methyl)-4-hydroxy-5-(4-isobutyramidopyrrolo[2,1-f][1,2,4]triazin-7-yl)tetrahydrofuran-3-yl L-valinate] | 1.9 | 10 | 5.6 | – | – | – |
| CCC(=O)OC[C@H]1O[C@@](C#N)(c2ccc3c(N)ncnn23)[C@H](O)[C@@H]1OCOC(=O)C(C)(C)C [Compound 72, {[(2R,3S,4R,5R)-5-{4-aminopyrrolo[2,1-f][1,2,4]triazin-7-yl}-5-cyano-4-hydroxy-2-[(propanoyloxy)methyl]oxolan-3-yl]oxy}methyl 2,2-dimethylpropanoate] | 5.8 | 3.2 | 0.55 | – | – | – |
| CCC(=O)OC[C@H]1O[C@@](C#N)(c2ccc3c(NC(=O)[C@@H](N)C(C)C)ncnn23)[C@H](O)[C@@H]1O [Compound 115, ((2R,3S,4R,5R)-5-(4-((S)-2-amino-3-methylbutanamido)pyrrolo[2,1-f][1,2,4]triazin-7-yl)-5-cyano-3,4-dihydroxytetrahydrofuran-2-yl)methyl propionate] | 0.04 | 1.7 | 47 | – | – | – |
| CCCCC(=O)Nc1ncnn2c([C@]3(C#N)O[C@H](COC(C)=O)[C@@H](O)[C@H]3O)ccc12 [Compound 288, ((2R,3S,4R,5R)-5-cyano-3,4-dihydroxy-5-(4-pentanamidopyrrolo[2,1-f][1,2,4]triazin-7-yl)tetrahydrofuran-2-yl)methyl acetate] | 0.91 | 6.9 | 7.7 | – | – | – |
| CC(=O)OCOC(=O)OC[C@H]1O[C@@](C#N)(c2ccc3c(NC(=O)[C@@H](N)Cc4ccc(F)cc4)ncnn23)[C@H](O)[C@@H]1O [Compound 366, (((((2R,3S,4R,5R)-5-(4-((S)-2-amino-3-(4-fluorophenyl)propanamido)pyrrolo[2,1-f][1,2,4]triazin-7-yl)-5-cyano-3,4-dihydroxytetrahydrofuran-2-yl)methoxy)carbonyl)oxy)methyl acetate] | 2.7 | 1.1 | 0.39 | – | – | – |
| N#C[C@@]1(c2ccc3c(N)ncnn23)O[C@H](COC(=O)CC2CCCCC2)[C@@H](O)[C@H]1O [Compound 10, ((2R,3S,4R,5R)-5-(4-aminopyrrolo[2,1-f][1,2,4]triazin-7-yl)-5-cyano-3,4-dihydroxytetrahydrofuran-2-yl)methyl 2-cyclohexylacetate] | 3 | 4.7 | 1.6 | – | – | – |
| CCC(=O)O[C@H]1[C@@H](O)[C@](C#N)(c2ccc3c(N)ncnn23)O[C@@H]1COC(=O)CC(C)C [Compound 23, ((2R,3S,4R,5R)-5-(4-aminopyrrolo[2,1-f][1,2,4]triazin-7-yl)-5-cyano-4-hydroxy-3-(propionyloxy)tetrahydrofuran-2-yl)methyl 3-methylbutanoate] | 6.3 | 8.1 | 1.3 | – | – | – |
| CCC(=O)OC[C@H]1O[C@@](C#N)(c2ccc3c(N)ncnn23)[C@H](O)[C@@H]1OC(=O)C(C)C [Compound 70, [(2R,3S,4R,5R)-5-{4-aminopyrrolo[2,1-f][1,2,4]triazin-7-yl}-5-cyano-4-hydroxy-3-[(2-methylpropanoyl)oxy]oxolan-2-yl]methyl propanoate] | 1.8 | 1.6 | 0.82 | – | – | – |
| CC(C)C(=O)Nc1ncnn2c([C@]3(C#N)O[C@H](COC(=O)Cc4ccccc4)[C@@H](OC(=O)[C@@H](N)C(C)(C)C)[C@H]3O)ccc12 [Compound 401, (2R,3S,4R,5R)-5-cyano-4-hydroxy-5-(4-isobutyramidopyrrolo[2,1-f][1,2,4]triazin-7-yl)-2-((2-phenylacetoxy)methyl)tetrahydrofuran-3-yl (S)-2-amino-3,3-dimethylbutanoate] | – | – | – | 3.8 | 15.3 | 4.1 |
| N#C[C@@]1(c2ccc3c(NC(=O)[C@@H](N)Cc4ccc(F)cc4)ncnn23)O[C@H](CO)[C@@H](OC(=O)CC2(N)CCCCC2)[C@H]1O [Compound 345, (2R,3S,4R,5R)-5-(4-((S)-2-amino-3-(4-fluorophenyl)propanamido)pyrrolo[2,1-f][1,2,4]triazin-7-yl)-5-cyano-4-hydroxy-2-(hydroxymethyl)tetrahydrofuran-3-yl 2-(1-aminocyclohexyl)acetate] | 0.09 | 3.9 | 43 | – | – | – |
| CCC(=O)OC[C@H]1O[C@@H](n2cnc3c(NC)nc(N)nc32)[C@](C)(F)[C@@H]1OC(C)=O [Compound 220, ((2R,3R,4R,5R)-3-acetoxy-5-(2-amino-6-(methylamino)-9H-purin-9-yl)-4-fluoro-4-methyltetrahydrofuran-2-yl)methyl propionate] | 20 | 13 | 0.64 | – | – | – |
| CC(C)[C@H](N)C(=O)O[C@H]1[C@@H](O)[C@](C#N)(c2ccc3c(NC(=O)OCOC(=O)C(C)(C)C)ncnn23)O[C@@H]1COC(=O)Cc1ccccc1 [Compound 360, (2R,3S,4R,5R)-5-cyano-4-hydroxy-2-((2-phenylacetoxy)methyl)-5-(4-((((pivaloyloxy)methoxy)carbonyl)amino)pyrrolo[2,1-f][1,2,4]triazin-7-yl)tetrahydrofuran-3-yl L-valinate] | – | – | – | 0.49 | 0.16 | 0.33 |
| CCC(=O)O[C@H]1[C@@H](O)[C@](C#N)(c2ccc3c(N)ncnn23)O[C@@H]1COC(=O)Cc1ccccc1 [Compound 47, (2R,3S,4R,5R)-5-(4-aminopyrrolo[2,1-f][1,2,4]triazin-7-yl)-5-cyano-4-hydroxy-2-((2-phenylacetoxy)methyl)tetrahydrofuran-3-yl propionate] | – | – | – | 2 | 5.1 | 2.5 |
| CC(C)(C)[C@H](N)C(=O)OC[C@H]1O[C@@](C#N)(c2ccc3c(N)ncnn23)[C@H](O)[C@@H]1OC(=O)CC1CCCCC1 [Compound 371, ((2R,3S,4R,5R)-5-(4-aminopyrrolo[2,1-f][1,2,4]triazin-7-yl)-5-cyano-3-(2-cyclohexylacetoxy)-4-hydroxytetrahydrofuran-2-yl)methyl (S)-2-amino-3,3-dimethylbutanoate] | 15 | 21 | 1.3 | – | – | – |
| CNc1nc(NC(=O)CC2CCCCC2)nc2c1ncn2[C@@H]1O[C@H](COC(=O)CC2CCCCC2)[C@@H](O)[C@@]1(C)F [Compound 292, ((2R,3R,4R,5R)-5-(2-(2-cyclohexylacetamido)-6-(methylamino)-9H-purin-9-yl)-4-fluoro-3-hydroxy-4-methyltetrahydrofuran-2-yl)methyl 2-cyclohexylacetate] | 2 | 1 | 0.5 | – | – | – |
| CC(C)CC(=O)OC[C@H]1O[C@@](C#N)(c2ccc3c(N)ncnn23)[C@H](O)[C@@H]1OCOC(=O)C(C)(C)C [Compound 24, ((2R,3S,4R,5R)-5-(4-aminopyrrolo[2,1-f][1,2,4]triazin-7-yl)-5-cyano-4-hydroxy-3-((pivaloyloxy)methoxy)tetrahydrofuran-2-yl)methyl 3-methylbutanoate] | 8.1 | 3.6 | 0.44 | – | – | – |
| CCC(=O)O[C@@H]1[C@@H](COC(C)=O)O[C@@H](n2cnc3c(NC)nc(N)nc32)[C@]1(C)F [Compound 329, (2R,3R,4R,5R)-2-(acetoxymethyl)-5-(2-amino-6-(methylamino)-9H-purin-9-yl)-4-fluoro-4-methyltetrahydrofuran-3-yl propionate] | 16 | 18 | 1.1 | – | – | – |
